Assay results reported in patent US12281363B2, “Methods for detecting antiviral-drug resistant virus” (Secretary of State for Health and Social Care, priority 2018, dated 2025).
Read-outs that look alike come from different tables or passages of the source.

System: HSV-1
Assay: Plaque reduction assay, HSV-1 clinical isolates on Vero cells
Assay type: cell-based
Conditions: Human alphaherpesvirus 1, Vero
Summary of the method: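 Susceptibility of HSV-1 isolates was read as percent plaque reduction versus no-drug control, counted on fixed, crystal-violet-stained sub-confluent Vero cells infected at 75 PFU/well beneath CMC. Intermediate resistance lies between cut-offs ACV <3/>40 μM, PCV <10/>40 μM, CDV <24/>30 μM, FOS <250/>400 μM.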

## Nc1nc2c(ncn2CCC(CO)CO)c(=O)[nH]1 [Penciclovir, penciclovir]
Isolate HPG033, HSV-1 TK I358L (1072A>C), also TK T287M, read-out: Drug susceptibility (IC50 value)
  IC50: > 160 µM
Isolate HPG033, HSV-1 TK I358L (1072A>C), also TK T287M, read-out: Drug susceptibility Penciclovir (PCV)
  IC50: > 40 µM
Isolate HPG033, HSV-1 pol N1046T (3137A>C), also TK T287M, pol A1169T, read-out: Drug susceptibility (IC50 value)
  IC50: > 160 µM
Isolate HPG033, HSV-1 pol N1046T (3137A>C), also TK T287M, pol A1169T, read-out: Drug susceptibility Penciclovir (PCV)
  IC50: > 40 µM
Isolate HPG035, HSV-1 pol S239L (716C>T), also pol S724N, read-out: Drug susceptibility (IC50 value)
  IC50: 14.6 µM
Isolate HPG035, HSV-1 pol S239L (716C>T), also pol S724N, read-out: Drug susceptibility Penciclovir (PCV)
  IC50: 10 to 40 µM
Isolate HPG037, HSV-1 TK L69M (205>A), also TK Y239H, read-out: Drug susceptibility Penciclovir (PCV)
  IC50: > 40 µM
Isolate HPG037, HSV-1 TK R256W (766C>T), read-out: Drug susceptibility (IC50 value)
  IC50: > 160 µM
Isolate HPG037, HSV-1 TK R256W (766C>T), read-out: Drug susceptibility Penciclovir (PCV)
  IC50: > 40 µM
Isolate HPG037, HSV-1 TK Y239H (715T>C), read-out: Drug susceptibility (IC50 value)
  IC50: > 160 µM
Isolate HPG037, HSV-1 TK Y239H (715T>C), read-out: Drug susceptibility Penciclovir (PCV)
  IC50: > 40 µM
Isolate HPG039, HSV-1 TK 85* or H58fs (169delC, 170delC, 171delC, or 172delC), read-out: Drug susceptibility (IC50 value)
  IC50: 158 µM
Isolate HPG039, HSV-1 TK 85* or H58fs (169delC, 170delC, 171delC, or 172delC), read-out: Drug susceptibility Penciclovir (PCV)
  IC50: > 40 µM
Isolate HPG040, HSV-1 pol S911N (2732G>A), also TK deletion (C) nt 896-900, pol A1169T, read-out: Drug susceptibility (IC50 value)
  IC50: > 160 µM
Isolate HPG040, HSV-1 pol S911N (2732G>A), also TK deletion (C) nt 896-900, pol A1169T, read-out: Drug susceptibility Penciclovir (PCV)
  IC50: > 40 µM
Isolate HPG041, HSV-1 pol S911N (2732G>A), also pol A1169T, read-out: Drug susceptibility (IC50 value)
  IC50: 3 µM
Isolate HPG041, HSV-1 pol S911N (2732G>A), also pol A1169T, read-out: Drug susceptibility Penciclovir (PCV)
  IC50: < 10 µM
Isolate HPG042, HSV-1 pol A972V (2915C>T), also TK deletion (C) nt 881-885, pol A1169T, read-out: Drug susceptibility (IC50 value)
  IC50: > 160 µM
Isolate HPG042, HSV-1 pol A972V (2915C>T), also TK deletion (C) nt 881-885, pol A1169T, read-out: Drug susceptibility Penciclovir (PCV)
  IC50: > 40 µM
Isolate HPG042, HSV-1 pol G22R (64G>A), also TK deletion (C) nt 881-885, pol A1169T, read-out: Drug susceptibility (IC50 value)
  IC50: > 160 µM
Isolate HPG042, HSV-1 pol G22R (64G>A), also TK deletion (C) nt 881-885, pol A1169T, read-out: Drug susceptibility Penciclovir (PCV)
  IC50: > 40 µM
Isolate HPG043, HSV-1 TK 183* (437_438insA), read-out: Drug susceptibility (IC50 value)
  IC50: > 160 µM
Isolate HPG043, HSV-1 TK 183* (437_438insA), read-out: Drug susceptibility Penciclovir (PCV)
  IC50: > 40 µM
Isolate HPG045, HSV-1 TK L49R (146T>G), read-out: Drug susceptibility (IC50 value)
  IC50: > 160 µM
Isolate HPG045, HSV-1 TK L49R (146T>G), read-out: Drug susceptibility Penciclovir (PCV)
  IC50: > 40 µM
Isolate HPG045, HSV-1 pol L419I (1255C>A), also TK L49R, pol A1169T, read-out: Drug susceptibility (IC50 value)
  IC50: > 160 µM
Isolate HPG045, HSV-1 pol L419I (1255C>A), also TK L49R, pol A1169T, read-out: Drug susceptibility Penciclovir (PCV)
  IC50: > 40 µM
Isolate HPG046, HSV-1 TK I166N (497T>A), read-out: Drug susceptibility (IC50 value)
  IC50: 98.5 µM
Isolate HPG046, HSV-1 TK I166N (497T>A), read-out: Drug susceptibility Penciclovir (PCV)
  IC50: > 40 µM
Isolate HPG047, HSV-1 pol E680 (2039A>C), also TK deletion (C) nt 548-553, pol A1169T, read-out: Drug susceptibility Penciclovir (PCV)
  IC50: > 40 µM
Isolate HPG050, HSV-1 TK Q34* (100C>T), read-out: Drug susceptibility (IC50 value)
  IC50: > 160 µM
Isolate HPG050, HSV-1 TK Q34* (100C>T), read-out: Drug susceptibility Penciclovir (PCV)
  IC50: > 40 µM
Isolate HPG051, HSV-1 pol D83A (248A>C), also TK R176stop, read-out: Drug susceptibility (IC50 value)
  IC50: > 160 µM
Isolate HPG051, HSV-1 pol D83A (248A>C), also TK R176stop, read-out: Drug susceptibility Penciclovir (PCV)
  IC50: > 40 µM
Isolate HPG052, HSV-1 TK Q34* (100C>T), read-out: Drug susceptibility (IC50 value)
  IC50: 25 µM
Isolate HPG052, HSV-1 TK Q34* (100C>T), read-out: Drug susceptibility Penciclovir (PCV)
  IC50: 10 to 40 µM
Isolate HPG053, HSV-1 pol L802R + A834S (2405T>G, 2500G>T), also TK R176W, read-out: Drug susceptibility Penciclovir (PCV)
  IC50: > 40 µM
Isolate HPG053, HSV-1 pol S911N (2732G>A), also TK R176W, pol A1169T, read-out: Drug susceptibility (IC50 value)
  IC50: > 160 µM
Isolate HPG053, HSV-1 pol S911N (2732G>A), also TK R176W, pol A1169T, read-out: Drug susceptibility Penciclovir (PCV)
  IC50: > 40 µM
Isolate HPG054, HSV-1 pol E992K (2974G>A), also TK insert (G) nt 430-436, pol A1169T, read-out: Drug susceptibility (IC50 value)
  IC50: > 160 µM
Isolate HPG054, HSV-1 pol E992K (2974G>A), also TK insert (G) nt 430-436, pol A1169T, read-out: Drug susceptibility Penciclovir (PCV)
  IC50: > 40 µM
Isolate HPG055, HSV-1 TK V204G (611T>G), also pol A1169AT, read-out: Drug susceptibility (IC50 value)
  IC50: 9.34 µM
Isolate HPG055, HSV-1 TK V204G (611T>G), also pol A1169AT, read-out: Drug susceptibility Penciclovir (PCV)
  IC50: < 10 µM
read-out: Drug susceptibility (IC50 value), isolate HPG005, HSV-1 TK A192T (574G>A)
  IC50: 5.19 µM
read-out: Drug susceptibility (IC50 value), isolate HPG006, HSV-1 pol G121S (361G>A), also a TK resistance mutation (footnote a)
  IC50: > 160 µM
read-out: Drug susceptibility (IC50 value), isolate HPG012, HSV-1 pol G985E (2954G>A), also TK A93V
  IC50: 9.67 µM
read-out: Drug susceptibility (IC50 value), isolate HPG016, HSV-1 pol A1169T (3505G>A)
  IC50: 7.19 µM
read-out: Drug susceptibility (IC50 value), isolate HPG037, HSV-1 TK L69M (205>A), also TK Y239H
  IC50: > 160 µM
read-out: Drug susceptibility (IC50 value), isolate HPG042, HSV-1 TK frameshift (881delC to 885delC)
  IC50: > 160 µM
read-out: Drug susceptibility (IC50 value), isolate HPG047, HSV-1 pol E680 (2039A>C), also TK deletion (C) nt 548-553, pol A1169T
  IC50: > 160 µM
read-out: Drug susceptibility Penciclovir (PCV), isolate HPG005, HSV-1 TK A192T (574G>A)
  IC50: < 10 µM
read-out: Drug susceptibility Penciclovir (PCV), isolate HPG006, HSV-1 pol G121S (361G>A), also a TK resistance mutation (footnote a)
  IC50: > 40 µM
read-out: Drug susceptibility Penciclovir (PCV), isolate HPG012, HSV-1 pol G985E (2954G>A), also TK A93V
  IC50: 10 to 40 µM
read-out: Drug susceptibility Penciclovir (PCV), isolate HPG016, HSV-1 pol A1169T (3505G>A)
  IC50: < 10 µM
read-out: Drug susceptibility Penciclovir (PCV), isolate HPG042, HSV-1 TK frameshift (881delC to 885delC)
  IC50: > 40 µM
